What was measured:
[1] = test system: intraocular pressure (IOP) in normotensive monkeys; assay: IOP after single topical ocular dosing of Compound A with or after latanoprost in conscious normotensive monkeys (Treatments 1-5); type: in vivo, cynomolgus monkeys (Macaca fascicularis); conditions: pre-clinical studies
Experimental: Compound A was administered in two different formulations: […]
The aqueous formulation comprised of the following: […]
The control in the first treatment was a 40 mcL composition of 0.8% sodium chloride (NaCl), 0.15% citrate, 0.01% benzalkonium chloride, 0.3% polysorbate 80, and 0.7% sodium (Na) carboxymethylcellulose.
In the third treatment, 10 monkeys received latanoprost (Xalatan™) dosed via 2 drops at 15 mcL apart (at a concentration of 50 mcg/mL) for a total dose of 1.5 mcg in one study eye and 2 drops of saline vehicle in the contralateral eye. This treatment was performed at two separate times with a sufficient washout between treatments. The IOPs of both the study eye and contralateral eye were measured repeatedly using a calibrated pneumotonometer following an application of a topical anesthetic (proparacaine).
In the fourth treatment, 10 monkeys received latanoprost (Xalatan™) topically dosed via 2 drops at 15 mcL apart (at a concentration of 50 mcg/mL) for a total dose of 1.5 mcg in one study eye and saline in the contralateral eye. […] The intraocular pressures (IOP) of both the study eye and contralateral eye were measured repeatedly using a calibrated pneumotonometer following an application of a topical anesthetic (proparacaine). […]

[2] = test system: intraocular pressure (IOP) in normotensive monkeys; assay: Multidose study: twice-daily topical Compound A suspension with once daily topical latanoprost, IOP in conscious monkeys; type: in vivo, cynomolgus monkeys (Macaca fascicularis)
Experimental: Ten female, ocular normotensive cynomolgus monkeys (Macaca fascicularis), aged 3 to 4 years old at initiation of treatment, were acclimated to ocular topical dosing and repeated IOP measurements using a pneumatonometer (Model 30 Classic) without general anesthesia or sedation (conscious) and dosed as indicated in Table 1.
Intraocular pressure was measured from both eyes (three readings/eye/time interval with mean values represented in the data tables) beginning approximately 1 hour predose, at Time 0 (just prior to dosing), and after dosing at various time intervals. Mean IOP values and the percent change in IOP levels from the baseline level were calculated. The FIGS. 5 and 6 show summarized data from this phase of the study of the combined IOP mean values of treatments and standard deviation of the mean for the control. The control plot includes the combined mean values of all treatments (BSS alone and BSS in combination with Placebo). The mean IOP levels in the control eye ranged from 21 to 22 mmHg.

[3] = Compound A 65 μg/dose BID plus latanoprost 1.5 μg QD, right eye

| Structure (SMILES) | IOP reduction by the combination of Compound A and latanoprost [1] | reduction in IOP compared with latanoprost alone ([2]; Compound A 65 μg/dose BID (130 μg/day) suspension plus latanoprost 1.5 μg QD, right eye, 1 hour after each Compound A dose (Time 0 and 5 hours)) | IOP reduction at peak trough after the first daily dose [2, 3] | IOP reduction at peak trough after the second daily dose [2, 3] [%] | reduction from the mean IOP baseline levels ([2]; latanoprost alone 1.5 μg/dose once daily topical, right eye, at peak trough) | reduction of mean IOP levels at peak trough ([2]; latanoprost alone 1.5 μg/dose once daily topical, right eye, repeated dosing, n=10) | IOP of treated eyes versus control eyes ([2]; latanoprost alone, after repeated treatments for two weeks, including pre-dose times) |
| --- | --- | --- | --- | --- | --- | --- | --- |
| O=[N+]([O-])OC[C@H]1O[C@@H](n2cnc3c(NC4CCCC4)ncnc32)[C@H](O)[C@@H]1O [Compound A, ((2R,3S,4R,5R)-5-(6-(cyclopentylamino)-9H-purin-9-yl)-3,4-dihydroxytetrahydrofuran-2-yl)methyl nitrate] | significant IOP reduction | greater reduction in IOP | approximately 12% | ~17 |  |  |  |
| CC(C)OC(=O)CCC/C=C\C[C@@H]1[C@@H](CC[C@@H](O)CCc2ccccc2)[C@H](O)C[C@@H]1O [latanoprost, isopropyl-(Z)-7[(1R,2R,3R,5S)3,5-dihydroxy-2-[(3R)-3-hydroxy-5-phenylpentyl]cyclopentyl]-5-heptenoate, reference compound] |  |  |  |  | approximately 13% | about 2 mm Hg | slightly lower than that of the control eyes |

Reference: US8877732B2, “Combination, kit and method of reducing intraocular pressure” (Inotek Pharmaceuticals Corporation, priority 2010, dated 2014)
